Key:
[1] = Removal of iron with propionic acid/EDTA, followed by spectroscopy (loss of the 400-450 nm peak); format: physicochemical; conditions: test solution of 1 mM ferrioxamine B
Text: The pink colour of the solution was rapidly lost. If desired the reaction can be followed spectroscopically, since after removal of iron the peak between 400 nm and 450 nm, characteristic of the ferrioxamine B conjugate will disappear completely.

[2] = format: physicochemical
Text: Once the iron had been removed, the solution was adjusted to pH 5.5 with 1.7 M sodium acetate buffer. The resulting precipitate was carefully washed by centrifugation in 0.7 M sodium acetate buffer, until the residual EDTA concentration could be expected to be negligible compared to that of the conjugate.

Compound	rate of the removal of iron ([1]; pH 2.5)	half-time for the removal of iron ([1]; pH 3)	half-time for the removal of iron ([1]; pH 3.5)	storage stability (capacity to be labelled) [2]
CC(=O)N([O-])CCCCCNC(=O)CCC(=O)N([O-])CCCCCNC(=O)CCC(=O)N([O-])CCCCCN.[Fe+3] [ferrioxamine B]	too rapid to follow	approximately 90 seconds	approximately 340 sec	
des-Ala^B30-insulin/desferrioxamine B conjugate [iron-free protein derivative]				without apparent impairment

— patent US7538182B2, “Polypeptide and protein derivatives and process for their preparation” (Amylin Pharmaceuticals, Inc., priority 1986, dated 2009)
